Reference: patent publication US11136296B2, “Substituted N-arylethyl-2-arylquinoline-4-carboxamides and use thereof” (Bayer Aktiengesellschaft, priority 2017, dated 2021)
pIC50: −log10 of the molar value.

molecular target: FP receptor (Homo sapiens (Human), UniProt P43088); test: In vitro test of inhibition of human FP receptor activity (PGF2α-induced calcium flux in FP-expressing CHEM1 cells); format: cell-based; settings: PGF2α-induced (2 nM) calcium flux in FP-expressing CHEM1 cells; some as mean values from multiple determinations
Excerpt: Table 1 below lists the IC50 values from this assay for individual working examples of the invention (some as mean values from multiple independent individual determinations): […]

Chain of FP receptor (P43088 whole entry): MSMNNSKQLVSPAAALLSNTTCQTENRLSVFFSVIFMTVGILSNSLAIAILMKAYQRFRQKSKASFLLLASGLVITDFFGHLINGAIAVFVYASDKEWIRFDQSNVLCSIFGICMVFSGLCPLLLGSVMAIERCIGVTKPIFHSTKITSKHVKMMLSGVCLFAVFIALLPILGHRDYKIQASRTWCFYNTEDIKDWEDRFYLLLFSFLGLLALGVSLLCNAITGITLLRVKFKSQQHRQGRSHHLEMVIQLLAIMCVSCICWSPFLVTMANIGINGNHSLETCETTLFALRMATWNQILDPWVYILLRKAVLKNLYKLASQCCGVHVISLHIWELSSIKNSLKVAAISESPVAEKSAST

SMILES | pIC50
Cc1c(-c2ccccc2)nc2ccc(Br)cc2c1C(=O)NCC(C(=O)O)c1ccccc1 (racemic) [Example 1, (+/−)-3-{[(6-Bromo-3-methyl-2-phenylquinolin-4-yl)carbonyl]amino}-2-phenylpropanoic Acid] | 6.89
Cc1c(-c2ccccc2)nc2ccc(Br)cc2c1C(=O)NCC(C(=O)O)c1ccc(F)cc1 (racemic) [Example 10, (+/−)-3-{[(6-Bromo-3-methyl-2-phenylquinolin-4-yl)carbonyl]amino}-2-(4-fluorophenyl)propanoic Acid] | 6.49
CCC(CNC(=O)c1c(C)c(-c2ccccc2)nc2ccc(Br)cc12)(C(=O)O)c1ccccc1 (racemic) [Example 16, (+/−)-2-({[(6-Bromo-3-methyl-2-phenylquinolin-4-yl)carbonyl]amino}methyl)-2-phenylbutanoic Acid] | 6.77
Cc1c(-c2ccccc2)nc2ccc(Br)cc2c1C(=O)NCC(O)(C(=O)O)c1ccccc1 (racemic) [Example 19, (+/−)-3-{[(6-Bromo-3-methyl-2-phenylquinolin-4-yl)carbonyl]amino}-2-hydroxy-2-phenylpropanoic Acid] | 6.82
Cc1c(-c2ccccc2)nc2ccc(Br)cc2c1C(=O)NCC(C(=O)O)c1ccc2c(c1)OCO2 (racemic) [Example 23, (+/−)-2-(1,3-Benzodioxol-5-yl)-3-{[(6-bromo-3-methyl-2-phenylquinolin-4-yl)carbonyl]amino}propanoic Acid] | 6.28
Cc1c(-c2ccccc2)nc2ccc(Br)cc2c1C(=O)NCC(C)(C(=O)O)c1ccccc1F (racemic) [Example 29, (+/−)-3-{[(6-Bromo-3-methyl-2-phenylquinolin-4-yl)carbonyl]amino}-2-(2-fluorophenyl)-2-methylpropanoic Acid] | 6.85
Cc1c(-c2ccccc2)nc2ccc(Br)cc2c1C(=O)NCC(C)(C(=O)O)c1c(F)cccc1F (racemic) [Example 32, (+/−)-3-{[(6-Bromo-3-methyl-2-phenylquinolin-4-yl)carbonyl]amino}-2-(2,6-difluorophenyl)-2-methylpropanoic Acid] | 6.82
Cc1c(-c2ccccc2)nc2ccc(Br)cc2c1C(=O)NCC(C)(C(=O)O)c1ccccc1Cl (racemic) [Example 35, (+/−)-3-{[(6-Bromo-3-methyl-2-phenylquinolin-4-yl)carbonyl]amino}-2-(2-chlorophenyl)-2-methylpropanoic Acid] | 6.72
Cc1c(-c2ccccc2)nc2ccc(Br)cc2c1C(=O)NCC(C)(C(=O)O)c1cccc(C(F)(F)F)c1 (racemic) [Example 41, (+/−)-3-{[(6-Bromo-3-methyl-2-phenylquinolin-4-yl)carbonyl]amino}-2-methyl-2-[3-(trifluoromethyl)phenyl]propanoic Acid] | 6.89
COc1cccc(C(CNC(=O)c2c(C)c(-c3ccccc3)nc3ccc(Br)cc23)C(=O)O)c1 (racemic) [Example 44, (+/−)-3-{[(6-Bromo-3-methyl-2-phenylquinolin-4-yl)carbonyl]amino}-2-(3-methoxyphenyl)propanoic Acid] | 6.72
COc1ccccc1C(O)(CNC(=O)c1c(C)c(-c2ccccc2)nc2ccc(Br)cc12)C(=O)O (racemic) [Example 53, (+/−)-3-{[(6-Bromo-3-methyl-2-phenylquinolin-4-yl)carbonyl]amino}-2-hydroxy-2-(2-methoxyphenyl)propanoic Acid] | 6.74
Cc1c(-c2ccccc2)nc2ccc(Br)cc2c1C(=O)NCC(CC(=O)O)c1ccccc1 (racemic) [Example 63, (+/−)-4-{[(6-Bromo-3-methyl-2-phenylquinolin-4-yl)carbonyl]amino}-3-phenylbutanoic Acid] | 6.47
Cc1c(-c2ccccc2)nc2ccc(Br)cc2c1C(=O)NCC(CC(=O)O)c1ccc(Cl)cc1 (racemic) [Example 66, (+/−)-4-{[(6-Bromo-3-methyl-2-phenylquinolin-4-yl)carbonyl]amino}-3-(4-chlorophenyl)butanoic Acid] | 6.30
Cc1ccc(C(CNC(=O)c2c(C)c(-c3ccccc3)nc3ccc(Br)cc23)CC(=O)O)cc1 (racemic) [Example 90, (+/−)-4-{[(6-Bromo-3-methyl-2-phenylquinolin-4-yl)carbonyl]amino}-3-(4-methylphenyl)butanoic Acid] | 6.33
Cc1c(-c2ccccc2)nc2ccc(Br)cc2c1C(=O)NCC(CC(=O)O)c1ccccn1 (racemic) [Example 102, (+/−)-4-{[(6-Bromo-3-methyl-2-phenylquinolin-4-yl)carbonyl]amino}-3-(pyridin-2-yl)butanoic Acid] | 6.34

These reach a higher pIC50. Values come first.

pIC50 | SMILES
7.00 | Cc1c(-c2ccccc2)nc2ccc(Br)cc2c1C(=O)NCC(CC(=O)O)c1c(Cl)cccc1Cl (racemic) [Example 78, (+/−)-4-{[(6-Bromo-3-methyl-2-phenylquinolin-4-yl)carbonyl]amino}-3-(2,6-dichlorophenyl)butanoic Acid]
7.03 | Cc1c(-c2ccccc2)nc2ccc(Br)cc2c1C(=O)NCC(C)(C(=O)O)c1ccccc1 (racemic) [Example 13, (+/−)-3-{[(6-Bromo-3-methyl-2-phenylquinolin-4-yl)carbonyl]amino}-2-methyl-2-phenylpropanoic Acid]
7.04 | Cc1c(-c2ccccc2)nc2ccc(Br)cc2c1C(=O)NCC(CC(=O)O)c1ccccc1C(F)(F)F (racemic) [Example 105, (+/−)-4-{[(6-Bromo-3-methyl-2-phenylquinolin-4-yl)carbonyl]amino}-3-[2-(trifluoromethyl)phenyl]butanoic Acid]
7.05 | Cc1c(-c2ccccc2)nc2ccc(Br)cc2c1C(=O)NCC(c1ccccc1Cl)C(C)(C)C(=O)O (racemic) [Example 111, (+/−)-4-{[(6-Bromo-3-methyl-2-phenylquinolin-4-yl)carbonyl]amino}-3-(2-chlorophenyl)-2,2-dimethylbutanoic Acid]
7.10 | Cc1cccc(C(CNC(=O)c2c(C)c(-c3ccccc3)nc3ccc(Br)cc23)CC(=O)O)c1 (racemic) [Example 93, (+/−)-4-{[(6-Bromo-3-methyl-2-phenylquinolin-4-yl)carbonyl]amino}-3-(3-methylphenyl)butanoic Acid]
7.10 | Cc1cccc(C(CNC(=O)c2c(C)c(-c3ccccc3)nc3ccc(Br)cc23)C(=O)O)c1 (racemic) [Example 50, (+/−)-3-{[(6-Bromo-3-methyl-2-phenylquinolin-4-yl)carbonyl]amino}-2-(3-methylphenyl)propanoic Acid]
7.11 | COc1cccnc1C(CNC(=O)c1c(C)c(-c2ccccc2)nc2ccc(Br)cc12)CC(=O)O (racemic) [Example 108, (+/−)-4-{[(6-Bromo-3-methyl-2-phenylquinolin-4-yl)carbonyl]amino}-3-(3-methoxypyridin-2-yl)butanoic Acid]
7.12 | Cc1c(-c2ccccc2)nc2ccc(Br)cc2c1C(=O)NCC(C(=O)O)c1cccc(C(F)(F)F)c1 (racemic) [Example 22, (+/−)-3-{[(6-Bromo-3-methyl-2-phenylquinolin-4-yl)carbonyl]amino}-2-[3-(trifluoromethyl)phenyl]propanoic Acid]
7.16 | Cc1ccccc1C(CNC(=O)c1c(C)c(-c2ccccc2)nc2ccc(Br)cc12)CC(=O)O (racemic) [Example 75, (+/−)-4-{[(6-Bromo-3-methyl-2-phenylquinolin-4-yl)carbonyl]amino}-3-(2-methylphenyl)butanoic Acid]
7.33 | Cc1c(-c2ccccc2)nc2ccc(Br)cc2c1C(=O)NCC(F)(C(=O)O)c1ccccc1 (racemic) [Example 38, (+/−)-3-{[(6-Bromo-3-methyl-2-phenylquinolin-4-yl)carbonyl]amino}-2-fluoro-2-phenylpropanoic Acid]
7.35 | Cc1c(-c2ccccc2)nc2ccc(Br)cc2c1C(=O)NCC(CC(=O)O)c1cccc(Cl)c1 (racemic) [Example 72, (+/−)-4-{[(6-Bromo-3-methyl-2-phenylquinolin-4-yl)carbonyl]amino}-3-(3-chlorophenyl)butanoic Acid]
7.36 | Cc1c(-c2ccccc2)nc2ccc(Br)cc2c1C(=O)NCC(C)(C(=O)O)c1ncccc1Cl (racemic) [Example 26, (+/−)-3-{[(6-Bromo-3-methyl-2-phenylquinolin-4-yl)carbonyl]amino}-2-(3-chloropyridin-2-yl)-2-methylpropanoic Acid]
7.37 | Cc1c(-c2ccccc2)nc2ccc(Br)cc2c1C(=O)NCC(C(=O)O)c1cccc(Cl)c1 (racemic) [Example 47, (+/−)-3-{[(6-Bromo-3-methyl-2-phenylquinolin-4-yl)carbonyl]amino}-2-(3-chlorophenyl)propanoic Acid]
7.55 | Cc1c(-c2ccccc2)nc2ccc(Br)cc2c1C(=O)NCC(CC(=O)O)c1ccccc1OC(F)(F)F (racemic) [Example 99, (+/−)-4-{[(6-Bromo-3-methyl-2-phenylquinolin-4-yl)carbonyl]amino}-3-[2-(trifluoromethoxy)phenyl]butanoic Acid]
7.62 | COc1ccccc1C(CNC(=O)c1c(C)c(-c2ccccc2)nc2ccc(Br)cc12)C(=O)O (racemic) [Example 7, (+/−)-3-{[(6-Bromo-3-methyl-2-phenylquinolin-4-yl)carbonyl]amino}-2-(2-methoxyphenyl)propanoic Acid]
7.64 | Cc1c(-c2ccccc2)nc2ccc(Br)cc2c1C(=O)NCC(CC(=O)O)c1c(F)cccc1Cl (racemic) [Example 87, (+/−)-4-{[(6-Bromo-3-methyl-2-phenylquinolin-4-yl)carbonyl]amino}-3-(2-chloro-6-fluorophenyl)butanoic Acid]
7.68 | COc1cccc(F)c1C(CNC(=O)c1c(C)c(-c2ccccc2)nc2ccc(Br)cc12)C(=O)O (racemic) [Example 56, (+/−)-3-{[(6-Bromo-3-methyl-2-phenylquinolin-4-yl)carbonyl]amino}-2-(2-fluoro-6-methoxyphenyl)propanoic Acid]
7.80 | Cc1c(-c2ccccc2)nc2ccc(Br)cc2c1C(=O)NCC(C)(CC(=O)O)c1ncccc1Cl (racemic) [Example 84, (+/−)-4-{[(6-Bromo-3-methyl-2-phenylquinolin-4-yl)carbonyl]amino}-3-(3-chloropyridin-2-yl)-3-methylbutanoic Acid]
